Biological target: CBP (Homo sapiens (Human), UniProt Q92793)
Assay: HTRF biochemical assay for CBP activity (TR-FRET, bromodomain)
Type: binding
Conditions: geometric mean, 10-point 3-fold dilution 33 μM to 1.7 nM, read-out: BROMO IC50 TRF TB CBP (μM gmean)
Procedure, shortened: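 IC50 derives from a 4-parameter logistic fit of % inhibition, calculated from the 520/490 nm TR-FRET ratio against DMSO and no-enzyme controls. Final compound levels spanned 33 μM to 1.7 nM (10 points, 3-fold), with CBP and peptide ligand in Hepes pH 7.5/GSH/BGG/BSA/Triton buffer, incubated at room temperature for varying times.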

Chain of CBP (Q92793 1085-1192): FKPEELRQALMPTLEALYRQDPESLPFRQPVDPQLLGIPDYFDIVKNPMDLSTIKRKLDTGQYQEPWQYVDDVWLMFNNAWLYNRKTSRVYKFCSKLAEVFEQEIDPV

Row | SMILES | IC50 [µM]
1 | COC(=O)N1CCc2ccc3c(nc([C@H]4CC[C@@H](C(=O)O)CC4)n3[C@@H](C)Cn3cc(Cl)cn3)c2C1 [Compound 264] | 0.01 to 0.1
2 | COC(=O)N1CCc2ccc3c(nc(C4CCCCC4)n3C[C@@H](C(=O)O)c3ccc(F)c(OC)c3)c2C1 [Compound 190] | 0.01 to 0.1
3 | COC(=O)N1CCc2ccc3c(nc([C@H]4CC[C@H](C(=O)O)CC4)n3[C@H](C)C[C@@H]3CCCCO3)c2C1 [Compound 302] | 0.1 to 1
4 | COC(=O)N1CCc2ccc3c(nc([C@@H]4CCCOC4)n3C[C@H](C(=O)O)c3ccccc3)c2C1 [Compound 257] | 0.01 to 0.1
5 | COC(=O)N1CCc2ccc3c(nc(C4CCCCC4)n3CC[C@H]3CCCC[C@H]3C(=O)O)c2C1 [Compound 193] | 0.01 to 0.1
6 | COC(=O)N1CCc2ccc3c(nc(C4CCCCC4)n3C[C@H]3CCCC[C@H]3C(=O)O)c2C1 [Compound 187] | 0.01 to 0.1
7 | COC(=O)N1CCc2ccc3c(nc(C4CCN(S(N)(=O)=O)CC4)n3[C@H](C)Cc3ccccc3)c2C1 [Compound 330] | 0.1 to 1
8 | COC(=O)N1CCc2ccc3c(nc([C@@H]4CCC[C@H](C(=O)O)C4)n3[C@H](C)Cc3ccccc3)c2C1 (single isomer, unassigned) [Compound 233] | 0.01 to 0.1
9 | COC(=O)N1CCc2c(C(=O)O)cc3c(nc(C4CCCCC4)n3[C@@H](C)Cc3ccccc3)c2C1 [Compound 67] | 0.001 to 0.01

Continued, values first:

Row | IC50 [µM] | SMILES
10 | 0.001 to 0.01 | COC(=O)N1CCc2ccc3c(nc([C@@H]4CCC[C@@H](C(=O)O)C4)n3[C@@H](C)Cc3ccc(F)c(F)c3)c2C1 [Compound 143]
11 | 0.001 to 0.01 | COC(=O)N1CCc2ccc3c(nc(N4CCN(C(=O)C5COC5)CC4)n3[C@H](C)Cc3ccccc3)c2C1 [Compound 79]
12 | 0.001 to 0.01 | COC(=O)N1CCc2ccc3c(nc([C@H]4CC[C@H](C(=O)O)CC4)n3[C@H](C)Cc3c(F)cccc3F)c2C1 [Compound 95]
13 | 0.001 to 0.01 | COC(=O)N1CCc2ccc3c(nc(C4CCCC(C(=O)O)C4)n3C[C@H](C)c3ccc(F)c(F)c3)c2C1 (stereo in doubt) [Compound 30, (1S,3S)-3[3-[(2R)-2-(3,4-difluorophenyl)propyl]-8-(methoxycarbonyl)-3H,6H,7H,8H,9H-imidazo[4,5-h]isoquinolin-2-yl]cyclohexane-1-carboxylic acid]
14 | 0.001 to 0.01 | COC(=O)N1CCc2ccc3c(nc([C@H]4CC[C@](C)(C(=O)O)CC4)n3[C@H](CO)Cc3ccccc3)c2C1 [Compound 117]
15 | 0.001 to 0.01 | COC(=O)N1CCc2ccc3c(nc(C4CCCCC4)n3[C@H](C)C[C@@H]3CCCC[C@@H]3C(=O)O)c2C1 [Compound 91]
16 | 0.001 to 0.01 | COC(=O)N1CCc2ccc3c(nc([C@H]4CC[C@H](C(=O)O)CC4)n3[C@@H](C)Cc3ccccc3Cl)c2C1 [Compound 42]
17 | 0.001 to 0.01 | COC(=O)N1CCc2c(C#N)cc3c(nc([C@H]4CC[C@H](C(=O)O)CC4)n3CCc3ccccc3)c2C1 [Compound 121]
18 | 0.001 to 0.01 | COC(=O)N1CCc2ccc3c(nc([C@H]4CC[C@H](C(=O)O)CC4)n3[C@@H](C)Cc3ccc(OC(F)F)cc3)c2C1 [Compound 69]
